Test results: patent publication US11965100B2, “Aggregation-induced emission luminogens useful for cancer cell discrimination and monitoring” (The Hong Kong University of Science and Technology, priority 2020, dated 2024)

Legend:
[1] = Quantum yield in the solid state; format: physicochemical
Description: IVPI-2 is able to stain mitochondria in healthy live cancer cells. However, when Δψm decreases, IVPI-2 migrates into nucleolus. Since IVPI-2 is target-changeable according to the change of mitochondrial physiology, the chemical structure of IVPI-2 was modified in order to enhance the mitochondria to nucleolus migration. Iodide ion is a well-known effective fluorescent quencher due to its heavy-atom effect. The quantum yield of IVP-02 in the solid state is 4.3%, which is about 3 times than that of IVPI-02 (1.3%). An Exemplary synthetic route to certain embodiments of the compounds described herein is depicted in Scheme 1.

[2] = test system: cancer cells (A549 and HeLa) co-cultured with normal cells (COS7 and HLF); test: CLSM imaging of cancer cells co-cultured with normal cells; format: cell-based; conditions: A549 co-cultured with COS7, 2 μM, 30 min
Description: (§1) FIG. 5 CLSM images of live cancer cells (A549 and HeLa) co-cultured with normal cells (COS7 and HLF) (A), and the images of A549 and HLF cells seeded on different cover glasses (Scale bar=20 μm) (B) stained with 2 μM IVP-02 for 30 min (Scale bar=50 μm), respectively. λex=488 nm, λem=500-650 nm.
(§2) FIG. 10 CLSM images of live cancer cells (A549) co-cultured with normal cells (COS7) (A), and the images of A549 and HLF cells seeded on different cover glasses Scale bar=20 μm (B) stained with 2 μM IVP-02, 04, 06, 22, 42, and 62 for 30 min Scale bar=50 μm, respectively. (The first column in B is the same as FIG. 3B) λex=488 nm, λem=500-650 nm.
FIG. 11 CLSM images of live cancer cells (HeLa) co-cultured with normal cells (COS7), stained with 2 μM IVP-02, 04, 06, 22, 42, and 62 for 30 min, respectively. λex=488 nm, λem=500-650 nm. Scale bar=20 μm.
FIG. 12 CLSM images of live cancer cells (A549) co-cultured with normal cells (HLF), stained with 2 μM IVP-02, 04, 06, 22, 42, and 62 for 30 min, respectively. λex=488 nm, λem=500-650 nm. Scale bar=20 μm.
(§3) The bioimaging properties of IVP-02 in live cells were investigated by confocal laser scanning microscopy (CLSM). Cancer cells (A549 and HeLa) and normal cells (COS7 and HLF) were stained with IVP-02, respectively. […] So IVP-02 holds the high potential to differentiate cancer and normal cells. To verify this speculation, cancer and normal cells were co-cultured and stained with IVP-02. […] To precisely confirm the selectivity of IVP-02 to cancer cells, cancer cells A549 and normal cells HLF (A549 and HLF are both human lung cells) were seeded on different cover glasses, respectively. Then the two cover glasses were put in the same dish and stained with IVP-02 at the same time.
(§4) Cancer cells A549 co-cultured with normal cells COS7 were stained with these molecules, respectively. […] Then HeLa cells co-cultured with COS7 cells (FIG. 11), and A549 cells co-cultured with HLF cells (FIG. 12) were also stained with these molecules, the results were similar with that in A549 cells co-cultured with COS7 cells. In addition to co-culturing, A549 cells and HLF cells were also seeded on different cover glasses and stained with these molecules. […] Based on the imaging results above, it can be concluded that the selectivity of these IVP molecules to cancer cells is also based on the length of alkyl chain at pyridinium salt side. Lengthening the alkyl chain at the pyridinium salt side will eliminate the selectivity to cancer cells.

[3] = test system: mitochondria in HeLa and A549 cells; test: Co-stain with mitochondrial probe MitoTracker Deep Red FM (MTDR); format: cell-based; conditions: A549 and HeLa, 2 μM dye, co-stain 0.2 μM MTDR
Description: FIG. 6 CLSM images of live HeLa and A549 cells stained with 2 μM IVP-02 and 0.2 μM MTDR, respectively. IVP-02: λex=488 nm, λem=500-650 nm; MTDR: λex=640 nm, λem=650-700 nm. Scale bar=20 μm.
In the above pictures, filamentous structures in cytoplasm of cancer cells were observed, which were typical morphology of mitochondria. Then co-stain experiments with commercial mitochondrial probe MitoTracker™ Deep Red FM (MTDR) were carried out (FIG. 6).
It was speculated that the membrane permeability of the probe was a key factor for its selectivity to cancer cells, since the plasma membrane of cancer cells was reported to be more permeable than normal cells. Consequently, IVP-02 was modified by lengthening the alkyl chain at the pyridine salt side and indole side, respectively, to tune the membrane permeability. The synthetic route to these new IVP molecules is depicted in Scheme 1. Their chemical structures were fully characterized by ^1H NMR, ^13C NMR, and ^19F NMR. Then cancer cells A549 were stained with the five new molecules, respectively. […] The co-stain experiments with MTDR also confirmed their location in mitochondria in A549 cells in FIG. 7C. In addition to A549 cells, the same experiments were also carried in HeLa cells (FIGS. 8 and 9).

[4] = test system: A549 cells; test: Mitochondrion-nucleolus migration on CCCP treatment, A549 cells; format: cell-based, human; conditions: for migration back to mitochondria after removal of CCCP: A549, CCCP removed, fresh medium 5 min; for migration from mitochondria to nucleolus after addition of CCCP: A549, pre-stained 2 μM 30 min, 20 μM CCCP 5 min
Description: FIG. 15 Live A549 cells (A) and live A549 co-cultured with COS 7 cells, live HeLa co-cultured with COS7 cells (B) were pre-stained with 2 μM IVP-02 for 30 min, and treated with 20 μM CCCP for 5 min. Then CCCP was removed away and fresh culture medium was added for another 5 min. λex=488 nm, λem=500-650 nm. Scale bar=20 μm.
FIG. 18 Live A549 cells were pre-stained with 2 μM IVP-04, 22, 42, 06, 62 for 30 min, and treated with 20 μM CCCP for 5 min. Then CCCP was removed away and fresh culture medium was added for another 5 min, respectively. λex=488 nm, λem=500-650 nm. Scale bar=20 μm.
(§5) Monitoring cell viability is a highly valuable task for the fundamental researches in biology, pathology, and medicine. Then we investigated whether IVP-02 could monitor cell viability. Δψm is a very important indicator to characterize cell viability. With the loss of cell viability, Δψm would decrease, while with the recovery of cell viability, Δψm would also recover to the normal level. […] Carbonyl cyanide m-chlorophenyl hydrazone (CCCP) is a type of protonophore and can cause rapid acidification of mitochondria by collapsing Δψm. Cancer cells A549 were pre-stained with IVP-02 for 30 min. In FIG. 15A, in the beginning, IVP-02 stained mitochondria clearly. […] Hydrogen peroxide (H2O2) can inhibit the oxidation respiratory chain that would cause the loss of cell viability. Then live A549 and HeLa cells were pre-stained with IVP-02, and treated with 10 mM H2O2.
(§6) In addition to IVP-02, we further investigated whether other IVP molecules could monitor the viability of cancer cells through mitochondrion-nucleolus migration was investigated. A549 cells were pre-stained with IVP-04, 22, 42, 06, and 62, respectively, and then CCCP was added.

[5] = test system: HeLa cells; test: Mitochondrion-nucleolus migration on CCCP treatment, HeLa cells; format: cell-based; conditions: pre-stained 2 μM 30 min, 20 μM CCCP 5 min
Description: FIG. 16 Live HeLa cells were pre-stained with 2 μM IVP-02 for 30 min, and treated with 20 μM CCCP for 5 min. Then CCCP was removed away and fresh culture medium was added for another 5 min. λex=488 nm, λem=500-650 nm. Scale bar=20 μm.
FIG. 19 Live HeLa cells were pre-stained with 2 μM IVP-04, 22, 42, 06, 62 for 30 min, and treated with 20 μM CCCP for 5 min. Then CCCP was removed away and fresh culture medium was added for another 5 min, respectively. λex=488 nm, λem=500-650 nm. Scale bar=20 μm.
as §5, §6

[6] = test system: A549 and HLF cells; test: CLSM imaging of A549 and HLF cells seeded on different cover glasses in the same dish; format: cell-based, human; conditions: 2 μM, 30 min
Description: as §1, §2, §3, §4

[7] = test system: RNA; test: RNA fluorescence titration, Scatchard equation; format: binding; conditions: comparison in words
Description: FIG. 20 (A) Fluorescence titration (left) of IVP-02 with RNA and the fitted curve (right) according to Scatchard equation. (B) The binding mode of IVP-02 to RNA. (C) Binding constant (k) and binding energy (E) of IVP molecules to RNA.
FIG. 21 Fluorescence titration (left) of IVP-04, 22, 42, 06, and 62 with RNA and the fitted curve (middle) according to Scatchard equation, and the binding mode (right) of them to RNA.
Why IVP-06 and 62 cannot stain the nucleolus in cancer cells to a significant extent? On one hand, when IVP molecules located in mitochondria, in addition to the electrostatic interaction between the cation and inner membrane negative charge of mitochondria, the hydrophobic interaction between alkyl chain and phospholipids also existed. When Δψm decreased, although the electrostatic interaction weakened, the hydrophobic interaction still remained. IVP-06 and 62 have longer alkyl chain than the other four IVP molecules, so the hydrophobic interaction between IVP-06 and 62 and phospholipids is stronger than that of the other four IVP molecules. […] In FIGS. 20A and 21, with the increase of RNA concentration, the fluorescence intensity of all the molecules increases. […] In FIG. 20B and FIG. 21, IVP molecules bound to the minor grooves of RNA, and the binding energy (E) was calculated and summarized in FIG. 20C.

## CC[n+]1ccc(/C=C/c2c[nH]c3ccccc23)cc1.[I-] [IVPI-02, reference compound]
[1]
  quantum yield: 1.3%

## CCn1cc(/C=C/c2cc[n+](CC)cc2)c2ccccc21 [IVP-22]
[2]
  staining of co-cultured cancer and normal cells: only stain A549 cells
[3]
  mitochondrial staining in cancer cells: can selectively stain mitochondria in cancer cells
[4]
  migration back to mitochondria after removal of CCCP: could migrate back in mitochondria
  migration from mitochondria to nucleolus after addition of CCCP: could enter nucleus and stain nucleolus
[5]
  nucleolus staining after addition of CCCP: could stain nucleolus

## CCCC[n+]1ccc(/C=C/c2c[nH]c3ccccc23)cc1 [IVP-04]
[2]
  staining of co-cultured cancer and normal cells: can stain both A549 and COS7 cells
[6]
  staining of A549 and HLF cells on different cover glasses: could stain both A549 and HLF cells
[3]
  mitochondrial staining in cancer cells: can selectively stain mitochondria in cancer cells
[4]
  migration back to mitochondria after removal of CCCP: could migrate back in mitochondria
  migration from mitochondria to nucleolus after addition of CCCP: could enter nucleus and stain nucleolus
[5]
  nucleolus staining after addition of CCCP: could stain nucleolus

## CCCCCCn1cc(/C=C/c2cc[n+](CC)cc2)c2ccccc21 [IVP-62]
[2]
  staining of co-cultured cancer and normal cells: only stain A549 cells
[3]
  mitochondrial staining in cancer cells: can selectively stain mitochondria in cancer cells
[4]
  migration from mitochondria to nucleolus after addition of CCCP: did not enter the nuclear to a substantial degree
[5]
  nucleolus staining after addition of CCCP: cannot
[7]
  binding constant (k) to RNA: lower than that of IVP-02, 04, 22, and 42

## CCCCCC[n+]1ccc(/C=C/c2c[nH]c3ccccc23)cc1 [IVP-06]
[2]
  staining of co-cultured cancer and normal cells: can stain both A549 and COS7 cells
[6]
  staining of A549 and HLF cells on different cover glasses: could stain both A549 and HLF cells
[3]
  mitochondrial staining in cancer cells: can selectively stain mitochondria in cancer cells
[4]
  migration from mitochondria to nucleolus after addition of CCCP: did not enter the nuclear to a substantial degree
[5]
  nucleolus staining after addition of CCCP: cannot
[7]
  binding constant (k) to RNA: lower than that of IVP-02, 04, 22, and 42

## CCCCn1cc(/C=C/c2cc[n+](CC)cc2)c2ccccc21 [IVP-42]
[2]
  staining of co-cultured cancer and normal cells: only stain A549 cells
[3]
  mitochondrial staining in cancer cells: can selectively stain mitochondria in cancer cells
[4]
  migration back to mitochondria after removal of CCCP: could migrate back in mitochondria
  migration from mitochondria to nucleolus after addition of CCCP: could enter nucleus and stain nucleolus
[5]
  nucleolus staining after addition of CCCP: could stain nucleolus
